According to patent publication US10278931B2, “Composition for treatment of inflammatory bowel disease and atopic dermatitis” (INNOPHARMASCREEN INC., priority 2015, dated 2019):

Tests used:
active caspase-1 = experiment: Western blotting of active caspase-1 in HMC-1 cells; assay type: cell-based, human
Description: (6) Western blotting analysis: Cells were seeded in a 6-well plate and then treated with a drug, and after a certain period of time, the cells were harvested. After harvest, the cells were washed with PBS and then lysed. 50 μg of tissue protein and cell extract protein were subjected to electrophoresis on 12% gel, transferred to nitrocellulose paper, and then blocked with 6% bovine serum albumin for 2 hours. Each protein was reacted with a primary antibody overnight and washed with PBS-tween. Thereafter, the resulting protein was reacted with a secondary antibody for 2 hours, washed, and then detected using an ECL solution kit.

[1] = system: balb/c mice with DNCB-induced atopic dermatitis; experiment: DNCB-induced atopic dermatitis model; assay type: in vivo; conditions: for epidermal thickness: DNCB group 87.1±13.0, normal 24.5±10.3; for number of mast cells in skin tissue: applied 3 weeks; for blood IgE level: DNCB group 790.0±151.8
Text: (5) Reverse transcription-polymerase chain reaction (RT-PCR) quantitative real time PCR: Total RNA was isolated from cells and tissues, and cDNA was synthesized using a reverse transcriptase and was then reacted with cytokine primers to be analyzed, followed by PCR and real-time PCR. The RT-PCR products were subjected to electrophoresis using 1.5% agarose gel for analysis.
A. Experimental animal: 5-week-old male BALB/c mice obtained from. Daehan Biolink (Eumseong, Chungbuk) were adapted for 2 weeks in a clean animal breeding room (small animal room #2-302) at Hoseo University Safety Evaluation Center, set under environmental conditions: temperature of 22±3° C.; relative humidity of 50±20%; ventilation frequency of 10 to 15 times/hour, illumination for 12 hours; and illuminance of 150 Lux to 300 Lux, and then used in an experiment.
4 experimental animals were accommodated in each of polycarbonate cages (270×500×200 mm, KYERYONG SCIENCE). Feed (5053-Picolab Rodent 20, PMI Nutrition International) and drinking water (ultraviolet sterilized filtered water) were allowed to ingest freely. All procedures of the experiment were conducted after approved by the Ethics Committee of the Hoseo University Safety Evaluation Center (HTRC-15-19).
B. Dermatitis induction: Hairs on the back of each mouse were removed and maintained for 24 hours, and then 150 μl of a 1% 2,4-dinitrochlorobenzene(DNCB) solution (acetone: olive oil=3:1) was applied on the hair-removed site once a week for 3 weeks. After week 3, the DNCB solution was applied on the site twice a week for 3 weeks to induce atopic dermatitis.
C. Treatment: Mice were divided into 6 groups, and 0.5% DMSO was applied on animals as a control and 200 μl of each of 0.01 μM, 0.1 μM, and 1 μM test material was applied on animals as experimental groups for 3 weeks. 50 μl of 0.1% dexamethasone dissolved in a crude alcohol was applied on animals as a positive control at intervals of 2 days.
D. Biopsy: After application of the test material was completed, the dorsal skin of each experimental animal was incised under heart anesthesia, some of them were rapidly frozen using liquid nitrogen and stored at −70° C. before analysis, and the remainder was fixed with 10% neutral buffered formalin for 24 hours. The fixed tissues were prepared into slides through general tissue processing, and then subjected to hematoxylin & eosin (H&E) staining to measure the thickness of the epidermal layer. In addition, toluidine blue staining was performed to observe a quantitative change of mast cells. While the stained tissues were observed by an optical microscope, the thickness of the epidermal layer and the number of mast cells were obtained using an image analyzer (Olympus DP-21).
E. IgE level measurement: IgE concentration in blood was measured by (SHIBAYAGI, Japan) using serum collected when autopsy was performed. 50 μL of an IgE standard solution and the sample were placed in antibody-attached 96 wells and allowed to react for 2 hours, and then 50 μL of a biotin-conjugated anti-IgE antibody solution was added to each well and allowed to react for 2 hours. Thereafter, the resulting sample was reacted with a HRP-avidin solution for 1 hour and a chromogenic substrate (TBM) reagent for 20 minutes, and the reaction was stopped using a reaction stopper. Absorbance of the sample was measured at 450 nm using ELISA (Molecular devices Emax).

[2] = system: IL-6, IL-22, IL-33 cytokine proteins; experiment: Cytokine & chemokine antibody microarray protein chip of DNCB skin tissue; assay type: in vivo, balb/c mice; conditions: 1% DNCB and 1 μM vs DNCB only; within threshold 1±0.1
Text: A. Preparation of tissue samples: The mouse skin tissue was frozen in liquid nitrogen and then finely ground in a mortar. Liquid nitrogen was intermittently added to prevent the tissue from being thawed. The finely ground skin tissue was placed in lysis M buffer to prepare a tissue sample lysate.
B. Fluorescent labeling of tissue lysates: Proteins were extracted from each of the tissue lysate treated with the sample for a certain period of time and an untreated tissue lysate (Lysis M extraction solution, Roche) and labeled with a fluorescent material (Cy3 or Cy5) (GE Healthcare). First, the amount of protein from each tissue lysate was adjusted to be at least 1 mg, and then coupling buffer (0.1M sodium carbonate buffer, pH 9.3) was added and mixed well. Cy3 and Cy5 dyes were added to each tissue lysate to which the coupling buffer had been added and mixed well for labeling at 4° C. for 16 hours. A control treated only with DNCB was labeled with Cy3 and Cy5, and the experimental groups treated with the sample were also labeled with Cy3 and Cy5. After labeling with the fluorescent dyes, free dyes were removed using a Post-reactive Spin column (Sigma).
C. Fabrication of antibody microarrays: ProteoChip™ (Proteogen, Inc., Seoul, Korea) was used as a protein chip, and antibody microarrays were fabricated by spotting antibodies against 26 proteins in cells on a substrate immobilized with 200 μg/ml of protein A on the ProteoChip™. First, the antibodies were diluted to 100 μg/ml with phosphate buffer containing 30% glycerol and the antibody arrays were fixed overnight at 4° C. […]
D. Hybridization of antibody arrays: Tissue lysates labeled with fluorescent materials were quantified (Bradford method), and 30 μg of each fluorescently labeled samples were mixed in 10 ml of a reaction solution. […] Each slide was analyzed using a fluorescent microarray scanner. […] The ratio of Cy5 to Cy3 in each spot was calculated using a software (Genepix 6.0). The INR values were calculated by sample-Cy5/control-Cy3×sample-Cy3/control-Cy5. […]

[3] = DNCB-applied balb/c mice skin tissue, RT-PCR
[4] = DNCB-applied balb/c mice, concentration of 0.011 μM (so in the source)

SMILES: Cl.N=C(N)NC(=N)Nc1ccc(Cl)cc1 [IPS-07001]
- expression of active caspase-1 (active caspase-1): inhibited
- visual changes of skin symptoms ([1]; 0.01 μM, topical, 3 weeks): No significant visual changes
- epidermal thickness ([1]; 0.01 μM): 70.8±4.3 μm
- number of mast cells in skin tissue ([1]; 0.1 μM, p<0.01): 25.8±3.5
- visual changes of skin symptoms ([1]; 0.1 μM, topical, 3 weeks): No significant visual changes
- epidermal thickness ([1]; 0.1 μM): 74.4±7.1 μm
- blood IgE level ([1]; 0.1 μM, p<0.05): 632.6±138.8
- number of mast cells in skin tissue ([1]; 1 μM, p<0.01): 23.8±5.1
- erythema, excoriation, and lichenification (visual observation) ([1]; 1 μM, topical, 3 weeks, compared to DNCB group): reduced
- epidermal thickness ([1]; 1 μM): 60.0±8.2 μm
- blood IgE level ([1]; 1 μM, p<0.01): 537.9±132.9
- IL-6 mRNA expression in atopic skin lesions [1, 3]: regulated
- TARC mRNA expression in atopic skin lesions [1, 3]: regulated
- TNF-a mRNA expression in atopic skin lesions [1, 3]: regulated
- IL-4 level in dorsal skin [1, 4]: significantly regulated
- serum IL-4 level [1, 4]: significantly regulated
- serum IgE level [1, 4]: significantly regulated
- serum histamine level [1, 4]: significantly regulated
- IL-6 protein expression (antibody chip, INR) [2]: decrease
- IL-22 protein expression (antibody chip, INR) [2]: decrease
- IL-33 protein expression (antibody chip, INR) [2]: decrease
